Test results from patent US20060069132A1, “Azolecarboxamide herbicides” (priority 2004, published 2006).

Tests used:
[1] = tested on: barnyardgrass; assay: Test B pre-/postemergence herbicide test; assay type: in vivo, Echinochloa crus-galli
In short: (§1)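 Herbicidal effect was judged by eye on a 0–100 scale after plants stood 13 to 15 days in the greenhouse following pre- or postemergence treatment with surfactant-containing formulations.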

[2] = tested on: Surinam grass; assay: Test B pre-/postemergence herbicide test; assay type: in vivo, Urochloa decumbens
In short: (§2)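 Test chemicals in a non-phytotoxic solvent mixture with surfactant were applied preemergence to seeded species and postemergence to plants 2-18 cm tall (1- to 4-leaf stage); rice and barnyardgrass were also tested in a flooded paddy at the 2-leaf stage. Visual rating versus controls after 13-15 days in greenhouse, scale 0 (no effect) to 100 (complete control).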

[3] = tested on: cocklebur; assay: Test B pre-/postemergence herbicide test; assay type: in vivo, Xanthium strumarium
In short: as §1

[4] = tested on: corn; assay: Test B pre-/postemergence herbicide test; assay type: in vivo, Zea mays
In short: as §2

[5] = tested on: large crabgrass; assay: Test B pre-/postemergence herbicide test; assay type: in vivo, Digitaria sanguinalis
In short: as §2

[6] = tested on: giant foxtail; assay: Test B pre-/postemergence herbicide test; assay type: in vivo, Setaria faberi
In short: as §2

[7] = tested on: lambsquarters; assay: Test B pre-/postemergence herbicide test; assay type: in vivo, Chenopodium album
In short: as §2

[8] = tested on: morningglory; assay: Test B pre-/postemergence herbicide test; assay type: in vivo, Ipomoea coccinea
In short: as §1

[9] = tested on: pigweed; assay: Test B pre-/postemergence herbicide test; assay type: in vivo, Amaranthus retroflexus
In short: as §2

[10] = tested on: rice; assay: Test B pre-/postemergence herbicide test; assay type: in vivo, Oryza sativa; conditions: preemergence; for Plant response rating, Rice: 500 g ai/ha, visual rating; for Plant response rating (0 to 100 scale), Rice: 0 is no effect, 100 is complete control
In short: as §2

[11] = tested on: velvetleaf; assay: Test B pre-/postemergence herbicide test; assay type: in vivo, Abutilon theophrasti
In short: as §2

[12] = tested on: blackgrass; assay: Test B postemergence herbicide test; assay type: in vivo, Alopecurus myosuroides
In short: (§3)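 Treated at 2-leaf (paddy) or 1–4-leaf, 2–18 cm (postemergence); greenhouse 13–15 d; visual score vs control, 0 none to 100 complete control; dash = not tested.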

[13] = tested on: wheat; assay: Test B postemergence herbicide test; assay type: in vivo, Triticum aestivum; parameters: key to Wheat plant response rating: 0 = no effect, 100 = complete control
In short: (§4)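 Plants grow to 1- to 4-leaf stage (2–18 cm) for postemergence spraying, or to 2-leaf stage for the paddy test. Formulated compound is applied. Greenhouse holding lasts 13–15 days. Response is scored visually relative to controls, 0 no effect to 100 complete control; a dash means no result.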

[14] = tested on: wild oat; assay: Test B postemergence herbicide test; assay type: in vivo, Avena fatua
In short: as §4

[15] = tested on: rice; assay: Test B flooded paddy test; assay type: in vivo, Oryza sativa; conditions: 1000 g ai/ha, scale 0 to 100 (0 no effect, 100 complete control)
In short: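 Paddy species grown to the 2-leaf stage under flooding; blackgrass sprayed postemergence at 2–18 cm (1- to 4-leaf stage). Plants kept in a greenhouse for 13 to 15 days, then visually rated against controls on 0 (no effect) to 100 (complete control).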

[16] = tested on: small flower umbrella sedge; assay: Test B flooded paddy test; assay type: in vivo, Cyperus difformis; conditions: 1000 g ai/ha, scale 0 to 100 (0 no effect, 100 complete control)
In short: as §3

[17] = tested on: ducksalad; assay: Test B flooded paddy test; assay type: in vivo, Heteranthera limosa; conditions: 1000 g ai/ha, scale 0 to 100 (0 no effect, 100 complete control)
In short: as §3

[18] = tested on: barnyardgrass; assay: Test B flooded paddy test; assay type: in vivo, Echinochloa crus-galli; conditions: 1000 g ai/ha, scale 0 to 100 (0 no effect, 100 complete control)
In short: as §3

[19] = 125 g ai/ha; 0 = no effect, 100 = complete control; preemergence
[20] = 500 g ai/ha; visual rating, 0 = no effect, 100 = complete control; preemergence
[21] = postemergence, 125 g ai/ha; visual rating, scale 0 (no effect) to 100 (complete control)
[22] = postemergence, 500 g ai/ha; scale 0 to 100, 0 is no effect, 100 is complete control
[23] = 0 = no effect, 100 = complete control
[24] = 125 g ai/ha; 0 is no effect, 100 is complete control; preemergence
[25] = 125 g ai/ha; visual rating, scale 0 (no effect) to 100 (complete control); postemergence

CCNC(=O)c1ccc(F)c(NC(=O)c2c(F)c(C(C)(C)C)nn2CC)c1 [Compound 275]
60: Plant response rating, Barnyardgrass [1, 20] | Pigweed plant response rating [9, 21] | Plant response rating, Rice [10, 23] | Ducksalad plant response rating [17]
40: Plant response rating, Morningglory [8, 20] | Plant response rating, Pigweed [9, 20] | Blackgrass plant response rating [12, 21] | Blackgrass plant response rating [12, 22] | Oat, Wild plant response rating [14, 22]
80: Sedge, Umbrella plant response rating [16]
30: Surinam Grass plant response rating [2, 22] | Velvetleaf plant response rating [11, 22] | Wheat plant response rating [13, 22] | Oat, Wild plant response rating [14, 21]
50: Lambsquarters plant response rating [7, 21]
0: Barnyardgrass plant response rating (0 to 100 scale) [1, 19] | Barnyardgrass plant response rating [1, 21] | Surinam Grass plant response rating (0 to 100 scale) [2, 19] | Cocklebur plant response rating (0 to 100 scale) [3, 19] | Plant response rating, Cocklebur [3, 20] | Cocklebur plant response rating [3, 21] | Corn plant response rating (0 to 100 scale) [4, 19] | Corn plant response rating [4, 21] | Corn plant response rating [4, 22] | Crabgrass, Large plant response rating (0 to 100 scale) [5, 19] | Plant response rating, Crabgrass, Large [5, 20] | Crabgrass, Large plant response rating [5, 21] | Foxtail, Giant plant response rating (0 to 100 scale) [6, 19] | Foxtail, Giant plant response rating [6, 21] | Foxtail, Giant plant response rating [6, 22] | Morningglory plant response rating (0 to 100 scale) [8, 19] | Morningglory plant response rating [8, 21] | Pigweed plant response rating (0 to 100 scale) [9, 19] | Rice plant response rating (0 to 100 scale) ([10]; 125 g ai/ha, 0 = no effect, 100 = complete control) | Velvetleaf plant response rating (0 to 100 scale) [11, 19] | Plant response rating, Velvetleaf [11, 20] | Velvetleaf plant response rating [11, 21]
10: Plant response rating, Surinam Grass [2, 20] | Surinam Grass plant response rating [2, 21] | Cocklebur plant response rating [3, 22] | Crabgrass, Large plant response rating [5, 22] | Morningglory plant response rating [8, 22]
100: Plant response rating, Lambsquarters [7, 20]
70: Lambsquarters plant response rating [7, 22] | Pigweed plant response rating [9, 22]
20: Barnyardgrass plant response rating [1, 22] | Plant response rating, Corn [4, 20] | Plant response rating, Foxtail, Giant [6, 20] | Wheat plant response rating [13, 21] | Rice plant response rating [15] | Barnyardgrass plant response rating [18]

CCc1cn(C(C)(C)C)nc1C(=O)Nc1cccc(C(=O)N(C)C)n1 [Compound 330]
20: Oat, Wild plant response rating [14, 22]
10: Lambsquarters plant response rating [7, 22] | Morningglory plant response rating [8, 25] | Morningglory plant response rating [8, 22] | Velvetleaf plant response rating [11, 22]
0: Plant response rating (0 to 100 scale), Barnyardgrass [1, 24] | Barnyardgrass plant response rating [1, 25] | Plant response rating, Barnyardgrass [1, 20] | Barnyardgrass plant response rating [1, 22] | Plant response rating (0 to 100 scale), Surinam Grass [2, 24] | Surinam Grass plant response rating [2, 25] | Plant response rating, Surinam Grass [2, 20] | Surinam Grass plant response rating [2, 22] | Plant response rating (0 to 100 scale), Cocklebur [3, 24] | Cocklebur plant response rating [3, 25] | Plant response rating, Cocklebur [3, 20] | Cocklebur plant response rating [3, 22] | Plant response rating (0 to 100 scale), Corn [4, 24] | Corn plant response rating [4, 25] | Plant response rating, Corn [4, 20] | Corn plant response rating [4, 22] | Plant response rating (0 to 100 scale), Crabgrass, Large [5, 24] | Crabgrass, Large plant response rating [5, 25] | Plant response rating, Crabgrass, Large [5, 20] | Crabgrass, Large plant response rating [5, 22] | Plant response rating (0 to 100 scale), Foxtail, Giant [6, 24] | Foxtail, Giant plant response rating [6, 25] | Plant response rating, Foxtail, Giant [6, 20] | Foxtail, Giant plant response rating [6, 22] | Plant response rating (0 to 100 scale), Lambsquarters [7, 24] | Lambsquarters plant response rating [7, 25] | Plant response rating, Lambsquarters [7, 20] | Plant response rating (0 to 100 scale), Morningglory [8, 24] | Plant response rating, Morningglory [8, 20] | Plant response rating (0 to 100 scale), Pigweed [9, 24] | Pigweed plant response rating [9, 25] | Plant response rating, Pigweed [9, 20] | Pigweed plant response rating [9, 22] | Plant response rating (0 to 100 scale), Rice ([10]; 125 g ai/ha) | Plant response rating, Rice [10, 23] | Plant response rating (0 to 100 scale), Velvetleaf [11, 24] | Velvetleaf plant response rating [11, 25] | Plant response rating, Velvetleaf [11, 20] | Blackgrass plant response rating [12, 25] | Blackgrass plant response rating [12, 22] | Wheat plant response rating [13, 25] | Wheat plant response rating [13, 22] | Oat, Wild plant response rating [14, 25] | Rice plant response rating [15] | Sedge, Umbrella plant response rating [16] | Ducksalad plant response rating [17] | Barnyardgrass plant response rating [18]

CCNC(=O)c1cccc(NC(=O)c2cc(C(C)(C)C)n[nH]2)c1 [Compound 351]
50: Pigweed plant response rating [9, 22]
10: Corn plant response rating [4, 22] | Crabgrass, Large plant response rating [5, 22] | Lambsquarters plant response rating [7, 22]
0: Plant response rating (0 to 100 scale), Barnyardgrass [1, 24] | Barnyardgrass plant response rating [1, 25] | Plant response rating, Barnyardgrass [1, 20] | Barnyardgrass plant response rating [1, 22] | Plant response rating (0 to 100 scale), Surinam Grass [2, 24] | Surinam Grass plant response rating [2, 25] | Plant response rating, Surinam Grass [2, 20] | Surinam Grass plant response rating [2, 22] | Plant response rating (0 to 100 scale), Cocklebur [3, 24] | Cocklebur plant response rating [3, 25] | Plant response rating, Cocklebur [3, 20] | Cocklebur plant response rating [3, 22] | Plant response rating (0 to 100 scale), Corn [4, 24] | Corn plant response rating [4, 25] | Plant response rating, Corn [4, 20] | Plant response rating (0 to 100 scale), Crabgrass, Large [5, 24] | Crabgrass, Large plant response rating [5, 25] | Plant response rating, Crabgrass, Large [5, 20] | Plant response rating (0 to 100 scale), Foxtail, Giant [6, 24] | Foxtail, Giant plant response rating [6, 25] | Plant response rating, Foxtail, Giant [6, 20] | Foxtail, Giant plant response rating [6, 22] | Plant response rating (0 to 100 scale), Lambsquarters [7, 24] | Lambsquarters plant response rating [7, 25] | Plant response rating, Lambsquarters [7, 20] | Plant response rating (0 to 100 scale), Morningglory [8, 24] | Morningglory plant response rating [8, 25] | Plant response rating, Morningglory [8, 20] | Morningglory plant response rating [8, 22] | Plant response rating (0 to 100 scale), Pigweed [9, 24] | Pigweed plant response rating [9, 25] | Plant response rating, Pigweed [9, 20] | Plant response rating (0 to 100 scale), Rice ([10]; 125 g ai/ha) | Plant response rating, Rice [10, 23] | Plant response rating (0 to 100 scale), Velvetleaf [11, 24] | Velvetleaf plant response rating [11, 25] | Velvetleaf plant response rating [11, 22] | Blackgrass plant response rating [12, 25] | Blackgrass plant response rating [12, 22] | Wheat plant response rating [13, 25] | Wheat plant response rating [13, 22] | Oat, Wild plant response rating [14, 25] | Oat, Wild plant response rating [14, 22] | Rice plant response rating [15] | Sedge, Umbrella plant response rating [16] | Ducksalad plant response rating [17] | Barnyardgrass plant response rating [18]
